In patent publication US9708312B2, “Dihydropyrimidinoisoquinolinones and pharmaceutical compositions thereof for the treatment of inflammatory disorders (GPR84 antagonists)” (GALAPAGOS NV, priority 2012, dated 2017):
pIC50: −log10 of the molar value.

What was measured:
GPR84 = biological target: T1, GPR84 (Homo sapiens, UniProt Q9NQS5); assay: GPR84 [35S]GTPγS binding assay, Tris buffer (alternative); format: biochemical; details: 3,3′ di indolylmethane at EC80, membranes from stable cell line over expressing GPR84, read-out: Alternative GPR84 assay GTPγS IC50 (GPR84-2)
T1 construct: expressed in transfected cells
T1 sequence (Q9NQS5 whole entry): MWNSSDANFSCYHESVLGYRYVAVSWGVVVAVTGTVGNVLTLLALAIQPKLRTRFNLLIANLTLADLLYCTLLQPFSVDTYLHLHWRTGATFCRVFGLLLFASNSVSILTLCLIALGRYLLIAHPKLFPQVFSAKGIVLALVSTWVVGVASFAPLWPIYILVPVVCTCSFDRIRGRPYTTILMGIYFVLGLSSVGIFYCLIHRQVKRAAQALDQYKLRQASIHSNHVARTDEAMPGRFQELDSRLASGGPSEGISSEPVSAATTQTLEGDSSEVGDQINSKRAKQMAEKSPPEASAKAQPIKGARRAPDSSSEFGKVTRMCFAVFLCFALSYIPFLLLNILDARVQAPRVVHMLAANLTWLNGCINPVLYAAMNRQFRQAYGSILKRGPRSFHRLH
Description: 1.1. Cell Based Assay: GTp-γ S Binding Assay.
The following assay can be used for determination of GPR84 activation. The [^35S]GTPγS binding assay measures the level of G protein activation following agonist occupation of a GPCR, by determining the binding of the non-hydrolysable analog [^35S]GTPγS to Gα subunits.
Alternatively, the assay is performed in a 96 well plate where the following reagents are added. First 50 μL compound is added into the assay plate, followed by addition of 20 μL 3,3′ di indolylmethane at EC80 concentration (concentration which gives 80% of the activity of GPR84). In a last step, 30 μL of a mixture consisting of membranes-GTPγS-SpA beads is added [mixture consists of 20 μg/well membranes derived from stable cell line over expressing GPR84 (membranes are pre-incubated with 0.1 μM GDP for 15 min at 4° C.), 0.1 nM [^35S]GTPγS (Perkin Elmer, NEG030) and 0.5 mg/well PVT-WGA SpA beads (Perkin Elmer, RPNQ0001)]. All components are diluted in assay buffer containing 20 mM Tris pH 7.5; 5 mM MgCl2; 250 mM NaCl; 0.05% BSA; 75 ug/mL saponin Reactions are incubated for 90 min at room temperature followed by centrifugation at 2000 rpm during 15 min. Plates are read on a Topcount reader (Perkin Elmer) immediately after centrifugation (readout time, 1 min/well).

human neutrophils = assay: Human neutrophil migration assay (embelin-induced chemotaxis); format: cell-based; details: Neutrophil; neutrophils from human buffy coats; embelin at EC80
Description: 2.1. Human Neutrophil Migration Assay
The effect of agonists or antagonists for GPR84 can therefore be assayed in a neutrophil migration test. In the neutrophil migration assay, neutrophils, freshly isolated from buffy coats from human volunteers, are treated with a compound for 30 min Subsequently, the neutrophils are transferred to the upper wells of a Corning HTS transwell 96 permeable support system, of which the lower wells are filled with a embelin solution at EC80 (concentration which gives 80% of the activity of GPR84). After 1 h of incubation, migration of the neutrophils towards embelin in the lower compartment can be quantified by measuring the ATP-content of the lower wells using the ATPlite luminescence ATP detection assay system (Perkin Elmer, Cat. No.: 436110).
2.1.1 Isolation of Neutrophils from Human Buffy Coat
A human buffy coat is diluted with an equal volume of ice cold DPBS. 20 mL of the diluted buffy coat is gently mixed with 4 mL of ACD buffer (140 mM citric acid, 200 mM sodium citrate and 220 mM dextrose). Then, 12 mL of the 6% dextran/0.9% NaCl solution (15 g dextran T2000 and 2.25 g NaCl dissolved in 250 mL H2O) is added to the mixture and the samples are inverted gently up to 20 times. The total volume was transferred to a new recipient and incubated at room temperature for 1 h for complete separation of the two phases to occur. The yellowish supernatant is then transferred to a clean centrifugation tube and centrifuged for 12 min at 1300 rpm and 4° C. After centrifugation, the supernatant is discarded and the remaining cell pellet is rapidly resuspended in 12 mL of ice-cold H2O for red blood cell lysis to occur. After 20 seconds, 4 mL of ice-cold 0.6 M KCl is added. Samples are mixed carefully and centrifuged for 6 min at 1300 rpm, 4° C. The supernatant is discarded and the red blood cell lysis procedure is repeated one more time. Subsequently, the cell pellet is resuspended in 4 mL of DPBS and layered over 5 mL of Lymphoprep (Nycomed Pharma, Cat. No.: 1114545) in a 15 mL centrifuge tube. After centrifugation for 12 min at 1300 rpm, 4° C., the supernatant is removed and the cell pellet, containing the neutrophils, is resuspended in 25 mL chemotaxis buffer (RPMI 1640 medium, supplemented with 10 mM HEPES; freshly made for each experiment)
A cell suspension of 8.9×10^6 cells per milliliter is prepared. 20 μL of compound solution in chemotaxis buffer is added to 180 μL cell suspension. The mixture is incubated at 37° C. for 30 min with intermediate resuspension of the cells after 15 min Following this, 70 μL cell suspension is transferred to the upper compartment of a Corning HTS transwell 96 permeable support system with 5.0 μm pore size polycarbonate membrane (Corning, Cat. No.: 3387). The receiver well of the transwell system is then filled with 200 μL chemotaxis buffer containing compound and chemotactic agent (embelin). After incubation at 37° C. in 5% CO2 for 1 h, the upper plate of the transwell system is removed and the cell suspension in the receiver plate is transferred to a 96-well V-bottom plate. 50 μL of DPBS is added to the receiver plate to prevent remaining cells from drying out. The V-bottom plate is centrifuged for 6 min at 1500 rpm. The supernatant is removed and the cells are resuspended in 50 μL DPBS. The cells are then transferred back to the receiver plate of the transwell system. After this, 100 μL ATPlite solution (Perkin Elmer, Cat. No: 436110) was added to the cells. The plate is incubated for 10 min in the dark, while shaking. […] of cell lysate is then transferred to a white 96-well plate and luminescence is measured. The detected luminescent signal is considered as linearely related to the number of cells having migrated from the upper well to the receiver well.

Row | SMILES | pIC50 (GPR84) | pIC50 (human neutrophils)
1 | CC(C)(C)C#Cc1ccc2c(c1)CCn1c-2cc(OCC2COc3ncccc3O2)nc1=O (stereo not drawn) [compound 144, 2-(2,3-dihydro-[1,4]dioxino[2,3-b]pyridin-2-ylmethoxy)-9-(3,3-dimethyl-but-1-ynyl)-6,7-dihydro-pyrimido[6,1-a]isoquinolin-4-one] | 7.00 to 11.00 | –
2 | COc1ccc(-c2ccc3c(c2)CCn2c-3cc(OCC3CCCO3)nc2=O)cn1 (stereo not drawn) [compound 110, 9-(6-methoxy-pyridin-3-yl)-2-(tetrahydro-furan-2-ylmethoxy)-6,7-dihydro-pyrimido[6,1-a]isoquinolin-4-one] | 6.30 to 7.00 | –
3 | O=c1nc(OCC2CCCO2)cc2n1CCc1cc(-c3cccc4ccccc34)ccc1-2 (stereo not drawn) [compound 114, 9-naphthalen-1-yl-2-(tetrahydro-furan-2-ylmethoxy)-6,7-dihydro-pyrimido[6,1-a]isoquinolin-4-one] | 6.00 to 6.30 | –
4 | Cc1cc(COc2ccc3c(c2)CCn2c-3cc(OCC3COc4ncccc4O3)nc2=O)nn1C (stereo not drawn) [compound 134, 2-(2,3-Dihydro-[1,4]dioxino[2,3-b]pyridin-2-ylmethoxy)-9-(1,5-dimethyl-1H-pyrazol-3-ylmethoxy)-6,7-dihydro-pyrimido[6,1-a]isoquinolin-4-one] | 7.00 to 11.00 | 7.00 to 11.00
5 | O=c1nc(OCC2CCCO2)cc2n1CCc1cc(-c3ccc4ccccc4c3)ccc1-2 (stereo not drawn) [compound 113, 9-naphthalen-2-yl-2-(tetrahydro-furan-2-ylmethoxy)-6,7-dihydro-pyrimido[6,1-a]isoquinolin-4-one] | 7.00 to 11.00 | –
6 | Cc1cccc(COc2ccc3c(c2)CCn2c-3cc(OCC3CCCO3)nc2=O)c1 (stereo not drawn) [compound 34, 9-(3-methyl-benzyloxy)-2-(tetrahydro-furan-2-ylmethoxy)-6,7-dihydro-pyrimido[6,1-a]isoquinolin-4-one] | 6.30 to 7.00 | –
7 | O=c1nc(OCC2CCCO2)cc2n1CCc1cc(C#CC3CC3)ccc1-2 (stereo not drawn) [compound 119, 9-cyclopropylethynyl-2-(tetrahydro-furan-2-ylmethoxy)-6,7-dihydro-pyrimido[6,1-a]isoquinolin-4-one] | 6.30 to 7.00 | –
8 | COCC#Cc1ccc2c(c1)CCn1c-2cc(OCC2COc3ncccc3O2)nc1=O (stereo not drawn) [compound 132, 2-(2,3-dihydro-[1,4]dioxino[2,3-b]pyridin-2-ylmethoxy)-9-(3-methoxy-prop-1-ynyl)-6,7-dihydro-pyrimido[6,1-a]isoquinolin-4-one] | 6.30 to 7.00 | 7.00 to 11.00
9 | CC(C)(C)C#Cc1ccc2c(c1)CCn1c-2cc(OCC2CCCO2)nc1=O (stereo not drawn) [compound 120, 9-(3,3-dimethyl-but-1-ynyl)-2-(tetrahydro-furan-2-ylmethoxy)-6,7-dihydro-pyrimido[6,1-a]isoquinolin-4-one] | 6.00 to 6.30 | –
10 | Cc1noc(COc2ccc3c(c2)CCn2c-3cc(OCC3COc4ncccc4O3)nc2=O)n1 (stereo not drawn) [compound 135, 2-(2,3-dihydro-[1,4]dioxino[2,3-b]pyridin-2-ylmethoxy)-9-(3-methyl-[1,2,4]oxadiazol-5-ylmethoxy)-6,7-dihydro-pyrimido[6,1-a]isoquinolin-4-one] | 7.00 to 11.00 | –
11 | O=c1nc(OCC2CCCO2)cc2n1CCc1cc(OCc3cccc4ccccc34)ccc1-2 (stereo not drawn) [compound 38, 9-(naphthalen-1-ylmethoxy)-2-(tetrahydro-furan-2-ylmethoxy)-6,7-dihydro-pyrimido[6,1-a]isoquinolin-4-one] | 6.00 to 6.30 | –
12 | Cc1noc(C)c1-c1ccc2c(c1)CCn1c-2cc(OCC2CCCO2)nc1=O (stereo not drawn) [compound 112, 9-(3,5-dimethyl-isoxazol-4-yl)-2-(tetrahydro-furan-2-ylmethoxy)-6,7-dihydro-pyrimido[6,1-a]isoquinolin-4-one] | 6.30 to 7.00 | –

Results, then the compound that gave them:

Row | pIC50 (GPR84) | pIC50 (human neutrophils) | SMILES
13 | 7.00 to 11.00 | – | O=c1nc(OCC2COc3ncccc3O2)cc2n1CCc1cc(C#CCO)ccc1-2 (stereo not drawn) [compound 138, 2-(2,3-dihydro-[1,4]dioxino[2,3-b]pyridin-2-ylmethoxy)-9-(3-hydroxy-prop-1-ynyl)-6,7-dihydro-pyrimido[6,1-a]isoquinolin-4-one]
14 | 7.00 to 11.00 | 7.00 to 11.00 | O=c1nc(OCC2COc3ncccc3O2)cc2n1CCc1cc(OCc3ccncc3)ccc1-2 (stereo not drawn) [compound 122, 2-(2,3-Dihydro-[1,4]dioxino[2,3-b]pyridin-2-ylmethoxy)-9-(pyridin-4-ylmethoxy)-6,7-dihydro-pyrimido[6,1-a]isoquinolin-4-one]
15 | 6.30 to 7.00 | – | COc1ccccc1-c1ccc2c(c1)CCn1c-2cc(OCC2COc3ncccc3O2)nc1=O (stereo not drawn) [compound 126, 2-(2,3-dihydro-[1,4]dioxino[2,3-b]pyridin-2-ylmethoxy)-9-(2-methoxy-phenyl)-6,7-dihydro-pyrimido[6,1-a]isoquinolin-4-one]
16 | 7.00 to 11.00 | 7.00 to 11.00 | O=c1nc(OCC2COc3ncccc3O2)cc2n1CCc1cc(C#Cc3ccncc3)ccc1-2 (stereo not drawn) [compound 137, 2-(2,3-dihydro-[1,4]dioxino[2,3-b]pyridin-2-ylmethoxy)-9-pyridin-4-ylethynyl-6,7-dihydro-pyrimido[6,1-a]isoquinolin-4-one]
17 | 6.30 to 7.00 | – | CN(C)c1ccccc1-c1ccc2c(c1)CCn1c-2cc(OCC2COc3ncccc3O2)nc1=O (stereo not drawn) [compound 130, 2-(2,3-Dihydro-[1,4]dioxino[2,3-b]pyridin-2-ylmethoxy)-9-(2-dimethylamino-phenyl)-6,7-dihydro-pyrimido[6,1-a]isoquinolin-4-one]
18 | 7.00 to 11.00 | 7.00 to 11.00 | Cc1ccc(-c2ccc3c(c2)CCn2c-3cc(OCC3COc4ncccc4O3)nc2=O)cn1 (stereo not drawn) [compound 139, 2-(2,3-dihydro-[1,4]dioxino[2,3-b]pyridin-2-ylmethoxy)-9-(6-methyl-pyridin-3-yl)-6,7-dihydro-pyrimido[6,1-a]isoquinolin-4-one]
19 | 7.00 to 11.00 | – | NC(=O)c1cccc(-c2ccc3c(c2)CCn2c-3cc(OCC3COc4ncccc4O3)nc2=O)c1 (stereo not drawn) [compound 129, 3-[2-(2,3-Dihydro-[1,4]dioxino[2,3-b]pyridin-2-ylmethoxy)-4-oxo-6,7-dihydro-4H-pyrimido[6,1-a]isoquinolin-9-yl]-benzamide]
20 | 7.00 to 11.00 | 7.00 to 11.00 | COc1ccc(-c2ccc3c(c2)CCn2c-3cc(OCC3COc4ncccc4O3)nc2=O)cn1 (stereo not drawn) [compound 118, 2-(2,3-Dihydro-[1,4]dioxino[2,3-b]pyridin-2-ylmethoxy)-9-(6-methoxy-pyridin-3-yl)-6,7-dihydro-pyrimido[6,1-a]isoquinolin-4-one]
21 | 7.00 to 11.00 | – | O=c1nc(OCC2COc3ncccc3O2)cc2n1CCc1cc(-c3cncnc3)ccc1-2 (stereo not drawn) [compound 128, 2-(2,3-dihydro-[1,4]dioxino[2,3-b]pyridin-2-ylmethoxy)-9-pyrimidin-5-yl-6,7-dihydro-pyrimido[6,1-a]isoquinolin-4-one]
